Patent EP2246331A1, “NR2B-selective NMDA-receptor antagonists” (Westfälische Wilhelms-Universität Münster, priority 2009, dated 2010)

Columns and labels:
[1] = target: T1, σ2 receptor (Rattus norvegicus, UniProt Q5U3Y7); test: Receptor binding assay with [3H]-ditolylguanidine on rat liver membranes; conditions: 3 nM [3H]-ditolylguanidine with 2 µM (+)-pentazocine, 180 min at room temperature, mean ± SEM, read-out: affinity to the σ2 receptor
T1 construct: tissue Harlan Winkelmann; host or cells: rat liver membranes
T1 sequence (Q5U3Y7 1-176): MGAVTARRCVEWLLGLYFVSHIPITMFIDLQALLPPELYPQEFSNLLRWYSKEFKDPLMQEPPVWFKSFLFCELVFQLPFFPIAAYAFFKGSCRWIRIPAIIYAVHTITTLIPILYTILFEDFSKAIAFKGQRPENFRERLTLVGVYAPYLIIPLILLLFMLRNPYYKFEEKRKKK
Protocol: (§1) The pig brains were a donation of the local slaughterhouse (Coesfeld, Germany). Homogenizer: Elvehjem Potter (B. Braun Biotech International, Melsungen, Germany). Centrifuge: High-speed cooling centrifuge model Sorvall RC-5C plus (Thermo Fisher Scientific, Langenselbold, Germany). Filter: Printed Filtermat Typ A and B (Perkin Elmer LAS, Rodgau-Jügesheim, Germany), presoaked in 0.5% aqueous polyethylenimine for 2 h at room temperature before use. […] Before filling to the final volume of 1000 mL, the pH of the solution was adjusted to pH=7.5 by dropwise addition of 1M HCl. The filtration was carried out with a MicroBeta FilterMate-96 Harvester (Perkin Elmer). The scintillation analysis was performed using Meltilex (Typ A or B) solid scintillator (Perkin Elmer). The solid scintillator was melted on the filtermat at a temperature of 95 °C for 5 minutes. After solidifying of the scintillator at room temperature, the scintillation was measured using a MicroBeta Trilux scintillation analyzer (Perkin Elmer). The overall counting efficiency was 20 %. All experiments were carried out in triplicates using standard 96-well-multiplates (Diagonal, Muenster, Germany). […] The Ki-values are given as mean value ± SEM from three independent experiments.
Determination of affinity to the σ2 receptor
Two rat livers (Harlan Winkelmann, Borchen, Germany) were cut into smaller pieces and homogenized with the potter (500-800 rpm, 10 up-and-down strokes) in 6 volumes of cold 0.32 M sucrose. The suspension was centrifuged at 1200 x g for 10 min at 4 °C. The supernatant was separated and centrifuged at 31000 x g for 20 min at 4 °C. The pellet was resuspended in 5-6 volumes of buffer (50 mM TRIS, pH 8.0) and incubated at room temperature for 30 minutes. After the incubation, the suspension was centrifuged again at 31000 x g for 20 min at 4 °C. The final pellet was resuspended in 5 to 6 volumes of buffer, the protein concentration was determined according to the method of Bradford using bovine serum albumin as standard, and subsequently the preparation was frozen (-80 °C) in 1.5 mL portions containing about 2 mg protein/mL.
(50 Ci/mmol; ARC). […] The incubation was terminated by rapid filtration through the presoaked filtermats using a cell harvester. After washing each well five times with 300 µL of water, the filtermats were dried at 95 °C. Subsequently, the solid scintillator was placed on the filtermat and melted at 95 °C. The bound radioactivity trapped on the filters was counted in the scintillation analyzer as described in the "General procedures" section.

[2] = target: T2, polyamine binding site of the NR2B subunit of the NMDA receptor (Homo sapiens, UniProt Q05586+Q13224); test: Filtration-based receptor binding assay with [3H]-Ifenprodil as radioligand; conditions: 5 nM [3H]-Ifenprodil; membrane homogenates of mouse L(tk-) cells transfected with NR1-1a/NR2B; 180 min at 37 °C; Ki mean of three experiments ± S.E.M.; read-out: affinity to the NR2B binding site of the NMDA receptor
T2 construct: expressed in transfected cells; host or cells: mouse L(tk-) cells, dexamethasone-induced; gift from D. Steinhilber, University of Frankfurt
T2 sequence (Q13224 27-1484, other chains not shown): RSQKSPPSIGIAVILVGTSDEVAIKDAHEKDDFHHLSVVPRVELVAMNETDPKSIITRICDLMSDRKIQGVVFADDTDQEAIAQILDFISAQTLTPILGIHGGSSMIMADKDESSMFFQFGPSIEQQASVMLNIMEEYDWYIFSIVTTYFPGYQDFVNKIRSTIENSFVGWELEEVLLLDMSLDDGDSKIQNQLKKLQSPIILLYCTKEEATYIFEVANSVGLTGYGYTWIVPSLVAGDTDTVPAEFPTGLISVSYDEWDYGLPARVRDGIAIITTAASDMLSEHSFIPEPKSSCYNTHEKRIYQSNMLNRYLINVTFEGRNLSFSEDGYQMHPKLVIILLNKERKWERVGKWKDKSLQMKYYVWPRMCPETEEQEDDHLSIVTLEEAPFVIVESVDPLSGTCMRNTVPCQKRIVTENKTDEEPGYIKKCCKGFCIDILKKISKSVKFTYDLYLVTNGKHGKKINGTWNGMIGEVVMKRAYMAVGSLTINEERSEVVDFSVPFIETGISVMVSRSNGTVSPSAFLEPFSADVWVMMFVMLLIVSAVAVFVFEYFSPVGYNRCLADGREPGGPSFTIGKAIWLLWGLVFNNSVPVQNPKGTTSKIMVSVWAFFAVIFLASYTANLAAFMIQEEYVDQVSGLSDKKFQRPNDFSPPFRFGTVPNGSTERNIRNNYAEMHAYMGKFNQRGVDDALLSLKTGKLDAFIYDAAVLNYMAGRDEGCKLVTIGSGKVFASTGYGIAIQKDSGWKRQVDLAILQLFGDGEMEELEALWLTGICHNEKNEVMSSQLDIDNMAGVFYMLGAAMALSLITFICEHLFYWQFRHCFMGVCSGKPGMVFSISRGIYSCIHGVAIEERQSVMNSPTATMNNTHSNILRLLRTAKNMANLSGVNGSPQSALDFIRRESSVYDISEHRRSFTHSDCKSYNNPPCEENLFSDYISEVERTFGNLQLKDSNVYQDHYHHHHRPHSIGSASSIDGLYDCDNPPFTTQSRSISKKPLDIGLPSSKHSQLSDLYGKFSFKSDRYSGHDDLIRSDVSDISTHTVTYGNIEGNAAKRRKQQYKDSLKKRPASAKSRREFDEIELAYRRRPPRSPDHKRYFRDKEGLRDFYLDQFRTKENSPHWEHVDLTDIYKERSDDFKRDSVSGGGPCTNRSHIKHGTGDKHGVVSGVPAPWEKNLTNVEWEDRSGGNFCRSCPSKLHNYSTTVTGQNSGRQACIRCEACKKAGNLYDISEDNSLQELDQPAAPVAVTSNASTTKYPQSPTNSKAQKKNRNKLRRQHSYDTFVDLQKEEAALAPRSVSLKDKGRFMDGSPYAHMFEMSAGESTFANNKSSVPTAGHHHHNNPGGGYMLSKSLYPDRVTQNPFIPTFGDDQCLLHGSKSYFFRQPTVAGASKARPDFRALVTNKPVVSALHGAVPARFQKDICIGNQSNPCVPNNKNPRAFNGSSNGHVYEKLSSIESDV
Protocol: Mouse L(tk-) cells stably transfected with the dexamethasone-inducible eukaryotic expression vectors pMSG NR1-1a, pMSG NR2B in a 1:5 ratio were a generous gift from D. Steinhilber (Department of Pharmacy, University of Frankfurt, Germany). The transformed L(tk-) cells were grown in Modified Earl's Medium (MEM) containing 10% of standardized FCS (Biochrom AG, Berlin, Germany). The expression of the NMDA receptor at the cell surface was induced after the cell density of the adherent growing cells had reached approximately 90% of confluency. For the induction, the original growth medium was replaced by growth medium containing 4 µM dexamethasone and 4 µM ketamine (final concentration). After 24 h the cells were harvested by trypsination and pelleted (10 min, 5,000 x g, Hettich Rotina 35R centrifuge, Tuttlingen, Germany).
For the binding assay, the cell pellet was resuspended in PBS buffer and the number of cells was determined using an improved Neubauer's counting chamber (VWR, Darmstadt, Germany). Subsequently, the cells were lysed by sonication (4 °C, 6 x 10 s cycles with breaks of 10 sec). The resulting cell fragments were centrifuged with a high performance cool centrifuge (20,000 x g, 4 °C, Sorvall RC-5 plus, Thermo Scientific). The supernatant was discarded and the pellet resuspended in a defined volume of phosphate buffer saline (PBS) yielding cell fragments of approximately 500,000 cells/mL. The suspension of membrane homogenates was sonicated again (4 °C, 2 x 10 s cycles with a break of 10 min) and stored at -80 °C.
The cell membrane suspension was added last. All experiments were carried out in triplicates. The incubation was terminated by rapid filtration through filtermats using a cell harvester (MicroBeta FilterMate-96 Harvester, Perkin Elmer). Prior to harvesting, the filtermats were presoaked in 0.5% aqueous polyethylenimine for 2 h at room temperature. After washing each well five times with 300 µL of water, the filtermats were dried at 95 °C. Subsequently, the solid scintillator was placed on the filtermat and melted at 95 °C. After 5 min, the solid scintillator was allowed to solidify at room temperature. The bound radioactivity trapped on the filters was counted in the scintillation analyzer (Microbeta Counter, Perkin Elmer). The overall counting efficiency was 20%.
The protein concentration was determined by the method of Bradford, modified by Stoscheck. The Bradford solution was prepared by dissolving 5 mg of Coomassie Brilliant Blue G 250 in 2.5 mL EtOH (95%, v/v). 10 mL deionized H2O and 5 mL phosphoric acid (85%, m/v) were added to this solution, the mixture was stirred and filled up to a total volume of 50.0 mL with deionized water. The calibration was carried out using bovine serum protein as a standard in concentrations between 0.1 and 10 mg /L. In a 96-well standard multiplate, 10 µL of the calibration solution or 10 µL of the membrane receptor preparation were mixed with 190 µL of the Bradford solution, respectively.
Kd and Bmax were calculated as described in the "Data analysis" section.
Data analysis was performed with Graph Pad Prism® Software, Version 3.0 (Graph Pad Software Inc., San Diego, CA, USA).
Saturation analyses were made by nonlinear regression using the "one-site-saturation" calculation method. The IC50 values of the test compounds used in the competitive binding experiments were determined by nonlinear regression using the "one-site-competition" calculation method. […] The Ki values are given as mean values from three independent experiments ± Standard Error of the Mean (S.E.M).

[3] = target: T3, σ1 receptor (Cavia porcellus, UniProt Q60492); test: Receptor binding assay with [3H]-(+)-pentazocine on guinea pig brain membranes; conditions: 2 nM [3H]-(+)-pentazocine, guinea pig brain membranes; for Ki: 180 min at 37 °C, mean ± SEM, read-out: affinity to the σ1 receptor
T3 construct: tissue Harlan Winkelmann; host or cells: guinea pig brain membranes
T3 sequence (Q60492 whole entry): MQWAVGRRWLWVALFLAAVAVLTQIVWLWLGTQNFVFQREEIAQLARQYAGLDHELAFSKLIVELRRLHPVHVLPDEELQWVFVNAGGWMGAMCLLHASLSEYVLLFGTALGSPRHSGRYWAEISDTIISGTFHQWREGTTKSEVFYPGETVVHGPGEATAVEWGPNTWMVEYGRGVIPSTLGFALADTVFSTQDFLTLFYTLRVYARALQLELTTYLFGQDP
Protocol: as §1
Determination of the affinity to the σ1 receptor
Five guinea pig brains (Harlan Winkelmann, Borchen, Germany) were homogenized with the potter (500-800 rpm, 10 up-and-down strokes) in 6 volumes of cold 0.32 M sucrose. The suspension was centrifuged at 1200 x g for 10 min at 4 °C. […] This procedure was repeated twice. The final pellet was resuspended in 5 to 6 volumes of buffer, the protein concentration was determined according to the method of Bradford using bovine serum albumin as standard, and subsequently the preparation was frozen (-80 °C) in 1.5 mL portions containing about 1.5 mg protein/mL.
The test was performed with the radioligand [^3H]-(+)-pentazocine (42,5 Ci/mmol; Perkin Elmer). […] The incubation was terminated by rapid filtration through the presoaked filtermats using a cell harvester. After washing each well five times with 300 µl of water, the filtermats were dried at 95 °C. The bound radioactivity trapped on the filters was counted in the scintillation analyzer as described in the "General procedures" section. The non-specific binding was determined with 10 µM unlabeled (+)-pentazocine.

[4] = target: phencyclidine binding site of the NMDA receptor; conditions: radioligand constant; T. Utech, Dissertation, 2003, Universität Freiburg; cited from earlier work

Compound	Ki [1]	Ki [2]	Ki [3]	inhibition of the σ1 receptor only at concentrations above ([3]; given as above 1 µM or 10 µM)	Kd [4]
OC1CN(C2CCC3(CC2)OCCO3)CCc2cc(OCc3ccccc3)ccc21 (stereo not shown) [formula (25)]	753 nM	1.12 nM	183 nM	–	–
O=C(c1ccccc1)N1CCC(N2CCc3cc(O)ccc3C(O)C2)CC1 (stereo not shown) [formula (26)]	97.7 nM	393 nM	–	above 1 µM	–
C[C@@H]1[C@H](O)c2ccc(O)cc2CCN1CCCCc1ccccc1 [formula (27)]	142 nM	12.3 nM	85.5 nM	–	–
C[C@H]1[C@@H](O)c2ccc(O)cc2CCN1CCCCc1ccccc1 [formula (28)]	103 nM	22.1 nM	393 nM	–	–
(+)-MK-801	–	–	–	–	2.26 nM
